Reference: patent publication US20150297629A1, “MODULATION OF RENIN-ANGIOTENSIN SYSTEM (RAS) RELATED DISEASES BY ANGIOTENSINOGEN” (Isis Pharmaceuticals, Inc,, priority 2012, published 2015)

Tests used:
SHR [1] = assay: Mean arterial pressure by tail-cuff method in SHR, Study 3; format: in vivo, Spontaneously hypertensive (SHR) rats; details: ISIS 552668 and control oligonucleotide 100 mg/kg/week, Captopril 150 mg/kg/day
Description: A control group of SHR was injected with phosphate buffered saline (PBS) administered weekly for 3 weeks. Another control group of SHR was injected with 100 mg/kg/week of a control oligonucleotide (a nucleotide not targeted to angiotensinogen) administered for 3 weeks. […] Mean arterial pressure (MAP) in the rats was measured by the tail-cuff volume-pressure method (Kent Scientific, Torrington, Conn.).

Dahl/SS rats = assay: Blood pressure by tail-cuff method in Dahl/SS rats; format: in vivo, Dahl/Salt Sensititive (Dahl/SS) rats; details: female Dahl/SS rats, 8% NaCl diet; 3 weeks; ISIS oligonucleotides 40 mg/kg/week, Captopril 150 mg/kg daily
Description: The rats were fed a diet with 8% NaCl. A group of female Dahl/SS rats was injected with 40 mg/kg/week of ISIS 552668 administered for 3 weeks. A group of female Dahl/SS rats was injected with 40 mg/kg/week of control oligonucleotides ISIS 141923 administered for 3 weeks. […] A control group of female Dahl/SS rats was injected with phosphate buffered saline (PBS) administered weekly for 3 weeks. Another control group constituted a group of Dahl/Salt Resistant (Dahl/SR) rats injected with phosphate buffered saline (PBS) administered weekly for 3 weeks.
Systolic blood pressure (SBP), mean arterial pressure (MAP), and diastolic blood pressure (DBP) in the rats was measured by the tail-cuff volume-pressure method (Kent Scientific). The results are presented in Table 12, expressed as the percent decrease in blood pressure compared to the control SHR group.

angiotensinogen protein = assay: ELISA of angiotensinogen plasma levels in SHR, Study 3; format: in vivo, Spontaneously hypertensive (SHR) rats; details: 3 weeks, oligonucleotides 100 mg/kg/week, Captopril 150 mg/kg/day
Description: (§1) A group of SHR was injected with 100 mg/kg/week of ISIS 552668 administered for 3 weeks. A control group of SHR was injected with phosphate buffered saline (PBS) administered weekly for 3 weeks. Another control group of SHR was injected with 100 mg/kg/week of a control oligonucleotide (a nucleotide not targeted to angiotensinogen) administered for 3 weeks.
Angiotensinogen plasma levels were measured by ELISA (IBL International, Toronto, Canada). […] Results are presented as percent inhibition of angiotensinogen, relative to PBS control.

angiotensinogen mRNA = assay: Real-time PCR of angiotensinogen mRNA in SHR tissues, Study 3; format: in vivo, Spontaneously hypertensive (SHR) rats; details: 3 weeks, oligonucleotides 100 mg/kg/week, Captopril 150 mg/kg/day
Description: as §1
[…] The mRNA levels were normalized using the housekeeping gene, GAPDH. […] Results are presented as percent inhibition of angiotensinogen, relative to control.

SHR [2] = assay: Systolic blood pressure by tail-cuff method in SHR before and after ISIS 552668 added to chronic Captopril, Study 4; format: in vivo, Spontaneously hypertensive (SHR) rats; details: for Blood pressure (SBP), After ISIS 552668 dosing: then 50 mg/kg ISIS 552668 added
renin mRNA = assay: Real-time PCR of kidney renin mRNA in SHR, Study 3; format: in vivo, Spontaneously hypertensive (SHR) rats; details: 3 weeks
Description: A control group of SHR was injected with phosphate buffered saline (PBS) administered weekly for 3 weeks. Another control group of SHR was injected with 100 mg/kg/week of a control oligonucleotide (a nucleotide not targeted to angiotensinogen) administered for 3 weeks. […] RNA was extracted from kidney tissue for real-time PCR analysis of renin, using primer probe set rRenin2 (forward sequence [NT], designated herein as SEQ ID NO: 21; reverse sequence [NT], designated herein as SEQ ID NO: 22; probe sequence [NT], designated herein as SEQ ID NO: 23). The mRNA levels were normalized using the housekeeping gene, GAPDH. […] Increase in renin in the body is deleterious to the overall health of the animal (Nguyen and Muller, The Biology of the (Pro)Renin Receptor, J Am Soc Nephrol, 2010 January, 21(1):18-23). […] Results are presented as percent expression of renin, relative to control.

female SHR rats = assay: Blood pressure by tail-cuff method in female SHR rats with subsequent Captopril, Study 2; format: in vivo, Spontaneously hypertensive (SHR) rats; details: Captopril 50 mg/kg/day for 4 days, no ASO
Description: A control group of female SHR rats was injected with phosphate buffered saline (PBS) administered weekly for 2 weeks. Another control group constituted a group of wild-type rats injected with phosphate buffered saline (PBS) administered weekly for 2 weeks. […] Systolic blood pressure (SBP), mean arterial pressure (MAP), and diastolic blood pressure (DBP) in the rats was measured by the tail-cuff volume-pressure method (Kent Scientific, Torrington, Conn.).

[3] = Captopril 25 mg/kg/day for 10 weeks
[4] = Captopril 50 mg/kg/day for 10 weeks
[5] = Captopril 100 mg/kg/day for 10 weeks

C[C@H](CS)C(=O)N1CCC[C@H]1C(=O)O [Captopril, reference compound]
MAP, Week 1 (SHR [1]): 107 mm Hg
MAP, Week 2 (SHR [1]): 109 mm Hg
MAP, Week 3 (SHR [1]): 112 mm Hg
DBP (Dahl/SS rats): 111 mm Hg
MAP (Dahl/SS rats): 128 mm Hg
SBP (Dahl/SS rats): 162 mm Hg
Percent inhibition of angiotensinogen protein in the plasma compared to the PBS control (angiotensinogen protein): 24%
Percent inhibition of angiotensinogen mRNA compared to the PBS control, Heart (angiotensinogen mRNA): 0%
Percent inhibition of angiotensinogen mRNA compared to the PBS control, Kidney (angiotensinogen mRNA): 41%
Percent inhibition of angiotensinogen mRNA compared to the PBS control, Liver (angiotensinogen mRNA): 0%
Blood pressure (SBP), Before ISIS 552668 dosing (SHR [2]; [3]): 159
Blood pressure (SBP), After ISIS 552668 dosing (SHR [2]; [3]): 153
Blood pressure (SBP), Before ISIS 552668 dosing (SHR [2]; [4]): 147
Blood pressure (SBP), After ISIS 552668 dosing (SHR [2]; [4]): 133
Blood pressure (SBP), Before ISIS 552668 dosing (SHR [2]; [5]): 137
Blood pressure (SBP), After ISIS 552668 dosing (SHR [2]; [5]): 127
Blood pressure (SBP), Before ISIS 552668 dosing (SHR [2]; Captopril 200 mg/kg/day for 10 weeks): 135
Induction of kidney renin expression compared to that with ISIS 552668 (renin mRNA; Captopril 150 mg/kg/day versus ISIS 552668 100 mg/kg/week): about three-fold
Percent increase of kidney renin mRNA (renin mRNA; oligonucleotides 100 mg/kg/week, Captopril 150 mg/kg/day, PBS = 100): 1110%
DBP (female SHR rats): 97 mm Hg
MAP (female SHR rats): 113 mm Hg
SBP (female SHR rats): 145 mm Hg
